Data on ten molecules can be found in ChEMBL document CHEMBL1201862, “PubChem BioAssay data set” (2004).

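Five concentrations, 48 hours, 96-well plates. Abbreviation: GI50, concentration required for 50% inhibition of growth.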 The source made the active and inactive calls. Cut-off read from the data, not from the text of the source: active = GI50 up to about 1.1 µM and inactive = higher.

Test systems include A498; ACHN; CCRF-CEM; EKVX; HCT-116; HCT-15; HT-29; K562; LOX IMVI; NCI-H226; NCI-H522; NCI/ADR-RES; OVCAR-4; RXF 393; SK-MEL-28; SK-OV-3; SN12C; SW-620; T47D; UO-31.
Experiment in all cases: DTP human tumour cell line panel, 48 h

The GI50 is the concentration at which growth is held to half of that of the control. Consider `COc1ccc(C2CC(c3c(O)ccc4ccccc34)=NN2c2ccc([N+](=O)[O-])cc2[N+](=O)[O-])cc1OC` (stereo not given), for which the GI50 in the assay on A498 was 7.18 µM (inactive); with ACHN, 18.5 µM (inactive); with CCRF-CEM, 6.03 µM (inactive); in the assay with EKVX, 14 µM (inactive); in the assay with HCT-116, 15.8 µM (inactive); in the assay on HCT-15 it was 27 µM. Moreover, the GI50 is 10.6 µM (inactive) with HT-29; 3.47 µM (inactive) in the assay on K562; 25.9 µM (inactive) with LOX IMVI; 13.9 µM (inactive) in the assay with NCI-H226; 2.46 µM (inactive) in the assay on NCI-H522; 3.66 µM (inactive) in the assay with NCI/ADR-RES. In addition, the GI50 with OVCAR-4 was 16.6 µM (inactive); with RXF 393, 24.4 µM (inactive); with SK-MEL-28, 34.2 µM (inactive); with SK-OV-3, 26.4 µM (inactive); in the assay with SN12C, 29.8 µM (inactive); with SW-620, 39.9 µM (inactive). Besides, the GI50 in the assay with T47D was 6.25 µM (inactive); in the assay on UO-31, 9.25 µM (inactive).

For `C=COC(=O)N[C@H]1CCc2cc(OC)c(OC)c(OC)c2-c2ccc(SC)c(=O)cc21`, the GI50 is < 0.01 µM (active) with A498; < 0.01 µM (active) in the assay on ACHN; < 0.01 µM (active) with CCRF-CEM; 8.43 µM (inactive) in the assay on EKVX; < 0.01 µM (active) in the assay with HCT-116; less than 0.01 µM in the assay with HCT-15. The GI50 in the assay on HT-29 was < 0.01 µM (active); with K562, < 0.01 µM (active); in the assay with LOX IMVI it was < 0.01 µM (active); with NCI-H226, 0.0372 µM (active); in the assay on NCI-H522, < 0.01 µM (active); in the assay on NCI/ADR-RES, < 0.01 µM (active). Also, the GI50 with OVCAR-4 was 4.97 µM (inactive); in the assay with RXF 393 it was < 0.0176 µM (active); with SK-MEL-28, 1.36 µM (inactive); in the assay with SK-OV-3, 0.0255 µM (active); with SN12C, < 0.01 µM (active); in the assay with SW-620 it was < 0.0286 µM (active). In addition, the GI50 is 34 µM (inactive) with T47D and < 0.048 µM (active) in the assay on UO-31.

For the molecule `COC(=O)C1=C(C)NC(C)=C([N+](=O)[O-])C1c1cccc(NO)c1` (stereo not given), the GI50 in the assay with A498 was 6.24 µM (inactive); in the assay with ACHN, 3.1 µM (inactive); with CCRF-CEM it was 2.34 µM (inactive); in the assay on EKVX it was 4.34 µM (inactive); with HCT-116, 2.37 µM (inactive); in the assay on HCT-15, 2.84 µM. The GI50 in the assay with HT-29 was 2.86 µM (inactive); with K562, 2.72 µM (inactive); with LOX IMVI, 3.5 µM (inactive); in the assay on NCI-H226, 7.28 µM (inactive); in the assay on NCI-H522 it was 3.67 µM (inactive); in the assay with NCI/ADR-RES, 4.16 µM (inactive). For the same molecule, the GI50 in the assay with OVCAR-4 was 6.04 µM (inactive); in the assay with RXF 393, 6.5 µM (inactive); in the assay on SK-MEL-28, 4.92 µM (inactive); with SK-OV-3, 7.38 µM (inactive); in the assay on SN12C it was 4.75 µM (inactive); in the assay on SW-620, 4.17 µM (inactive). The GI50 is 3.27 µM (inactive) in the assay with T47D and 2.96 µM (inactive) in the assay with UO-31.

Take `Cc1c[nH]c(C(=O)O)c1-c1cccn1-c1ccc(Cl)cc1[N+](=O)[O-]`: the GI50 in the assay with A498 is > 100 µM (inactive); with ACHN it was > 100 µM (inactive); in the assay on CCRF-CEM it was > 100 µM (inactive); in the assay with EKVX, > 100 µM (inactive); with HCT-116 it was > 100 µM (inactive); in the assay with HCT-15, more than 100 µM. The GI50 with HT-29 was > 100 µM (inactive); with K562 it was 73.8 µM (inactive); in the assay with LOX IMVI it was > 100 µM (inactive); in the assay on NCI-H226, 92.3 µM (inactive); in the assay on NCI-H522 it was 72.8 µM (inactive); with NCI/ADR-RES it was 72.3 µM (inactive). Further, the GI50 is > 100 µM (inactive) in the assay with OVCAR-4; 83 µM (inactive) in the assay with RXF 393; > 100 µM (inactive) in the assay on SK-MEL-28; > 100 µM (inactive) with SK-OV-3; > 100 µM (inactive) in the assay with SN12C; > 100 µM (inactive) in the assay on SW-620. Further, the figures for the GI50 with T47D and in the assay on UO-31 were > 100 µM (inactive) and 45.9 µM (inactive), respectively.

Regarding `O=C1Nc2ccccc2C1S(=O)(=O)c1ccccc1` (stereo not given), the GI50 in the assay on A498 was > 100 µM (inactive); with ACHN it was > 100 µM (inactive); in the assay with CCRF-CEM, > 100 µM (inactive); with EKVX it was > 100 µM (inactive); in the assay with HCT-116, > 100 µM (inactive); with HCT-15, more than 100 µM. The GI50 in the assay with HT-29, in the assay on K562, in the assay with LOX IMVI, in the assay with NCI-H226, in the assay with NCI-H522 and in the assay with NCI/ADR-RES was > 100 µM (inactive) in each case. The GI50 in the assay on OVCAR-4, in the assay with RXF 393, in the assay with SK-MEL-28, in the assay with SK-OV-3, in the assay on SN12C and with SW-620 was > 100 µM (inactive) each time. The GI50 in the assay on T47D and with UO-31 was > 100 µM (inactive) each time.

As to `CC(C)(C)[C@H]1NC(=O)CN1C(=O)OCc1ccccc1`, the GI50 was 10.7 µM (inactive) in the assay on A498; 82.2 µM (inactive) in the assay with ACHN; > 100 µM (inactive) in the assay on CCRF-CEM; > 100 µM (inactive) in the assay with EKVX; 67.3 µM (inactive) in the assay with HCT-116; more than 100 µM in the assay on HCT-15. The GI50 with HT-29 was > 100 µM (inactive); in the assay on K562 it was 66.7 µM (inactive); in the assay with LOX IMVI it was 43.6 µM (inactive); in the assay on NCI-H226, > 100 µM (inactive); in the assay on NCI-H522, > 100 µM (inactive); with NCI/ADR-RES, > 100 µM (inactive). In addition, the GI50 in the assay on OVCAR-4, with RXF 393, in the assay on SK-MEL-28, in the assay on SK-OV-3, in the assay with SN12C and with SW-620 was > 100 µM (inactive) each time. Also, the GI50 in the assay with T47D is 60.8 µM (inactive); in the assay on UO-31 it was 9.35 µM (inactive).

For the molecule `Cc1c(Cl)cc(C(C)(C)C)c(O)c1Cc1c(C)c(Cl)cc(C(C)(C)C)c1O`, the GI50 is 1.26 µM (inactive) in the assay on A498; 1.29 µM (inactive) with ACHN; 0.303 µM (active) in the assay with CCRF-CEM; 1.4 µM (inactive) in the assay on EKVX; 0.536 µM (active) in the assay on HCT-116; 2.21 µM in the assay on HCT-15. Moreover, the GI50 was 1.54 µM (inactive) in the assay on HT-29; 0.752 µM (active) with K562; 1.56 µM (inactive) in the assay with LOX IMVI; 2.22 µM (inactive) with NCI-H226; 0.299 µM (active) in the assay with NCI-H522; 2.14 µM (inactive) with NCI/ADR-RES. Further, the GI50 is 1.26 µM (inactive) in the assay on OVCAR-4; 0.9 µM (active) in the assay with RXF 393; 2.33 µM (inactive) in the assay on SK-MEL-28; 2.98 µM (inactive) with SK-OV-3; 1.87 µM (inactive) in the assay with SN12C; 1.81 µM (inactive) in the assay on SW-620. In addition, the GI50 with T47D was 0.562 µM (active); with UO-31, 1.82 µM (inactive).

Turning to `CS(=O)(=O)Nc1ccc2ccccc2c1-c1c(NS(C)(=O)=O)ccc2ccccc12`, the GI50 was > 25 µM (inactive) in the assay with A498; 0.982 µM (active) with ACHN; > 25 µM (inactive) with CCRF-CEM; > 25 µM (inactive) with EKVX; > 18.6 µM (inactive) in the assay with HCT-116; more than 25 µM in the assay with HCT-15. In addition, the GI50 in the assay with HT-29, in the assay with K562, with LOX IMVI, in the assay with NCI-H226, in the assay on NCI-H522 and in the assay on NCI/ADR-RES was > 25 µM (inactive) each time. Moreover, the GI50 was > 25 µM (inactive) in the assay on OVCAR-4; > 21.5 µM (inactive) with RXF 393; > 25 µM (inactive) in the assay with SK-MEL-28; > 25 µM (inactive) in the assay with SK-OV-3; > 25 µM (inactive) in the assay on SN12C; > 25 µM (inactive) in the assay with SW-620. Further, the GI50 in the assay with T47D and in the assay on UO-31 was > 25 µM (inactive) throughout.

Regarding `COC(=O)CCC(C)[C@H]1CCC2C3C(C[C@H](OC(C)=O)[C@@]21C)[C@@]1(C)CCC2(C[C@H]1C[C@H]3OC(C)=O)OOC1(CCCC1)OO2` (stereo not given in full), the GI50 with A498 was > 100 µM (inactive); with ACHN it was 10.4 µM (inactive); in the assay on CCRF-CEM, 7.89 µM (inactive); with EKVX, 11.1 µM (inactive); with HCT-116, 6.43 µM (inactive); in the assay on HCT-15 it was 27.5 µM. Besides, the GI50 was 34.4 µM (inactive) in the assay with HT-29; 6.3 µM (inactive) in the assay with K562; 7 µM (inactive) in the assay on LOX IMVI; 27.9 µM (inactive) with NCI-H226; 23.4 µM (inactive) in the assay with NCI-H522; 84.5 µM (inactive) in the assay on NCI/ADR-RES. Also, the GI50 in the assay on OVCAR-4 was 12.6 µM (inactive); in the assay on RXF 393, 63.1 µM (inactive); in the assay with SK-MEL-28, > 100 µM (inactive); in the assay with SK-OV-3 it was > 100 µM (inactive); in the assay on SN12C, 42.5 µM (inactive); in the assay on SW-620, 51.9 µM (inactive). The GI50 with T47D is 7.19 µM (inactive); in the assay on UO-31, 10.1 µM (inactive).

For the molecule `CCOC(=O)c1cn2c(n1)sc1cc(Cl)cc(Cl)c12`, the GI50 in the assay with A498 was > 100 µM (inactive); with ACHN, > 100 µM (inactive); with CCRF-CEM, > 100 µM (inactive); with EKVX, > 100 µM (inactive); with HCT-116, > 100 µM (inactive); in the assay on HCT-15, more than 100 µM. Besides, the GI50 in the assay with HT-29, with K562, with LOX IMVI, in the assay on NCI-H226, in the assay on NCI-H522 and in the assay on NCI/ADR-RES was > 100 µM (inactive) each time. Also, the GI50 with OVCAR-4, in the assay with RXF 393, in the assay with SK-MEL-28, with SK-OV-3, in the assay on SN12C and with SW-620 was > 100 µM (inactive) each time. In addition, the GI50 with T47D and in the assay on UO-31 was > 100 µM (inactive) in each case.
